Tests used:
Format in all cases: in vivo, SD rats
[1] = system: rat models of pulmonary fibrosis; test: Body weight in bleomycin-induced rat models of pulmonary fibrosis
From the text: (§1) The present experimental example explored the influence of the plant extract solution prepared in Embodiments 1-3 on the body weight and lung coefficient of rats. The method was as follows:
(§2) 80 healthy SD rats including half males and half females with a body weight of 230 g±10 g were selected and divided into a blank group, a model group, embodiment group 1, embodiment group 2, embodiment group 3, comparative example group 1, comparative example group 2 and a positive control group, each group consisting of 10 rats. After the rats in each group were raised regularly for one week, each rat was intraperitoneally injected with 4% chloral hydrate at an injection dose of 10 ml/kg. The anesthetized rats were fixed in a supine position, and the rat necks were subjected to hair removal, disinfected with iodine alcohol, and longitudinally cut to expose tracheas. Except for the blank group, the rats in each group were pierced with an injector by 1 cm toward the heart through a gap between two tracheal cartilage rings, and after resistance-free withdrawal, bleomycin was injected into the trachea at a dose of 5 mg/kg. The blank group was injected with an equal volume of normal saline. Immediately after injection, the rats were rotated upright for 5 min to fully distribute the medicament in the lungs. Various layers of tissues were sutured, and local alcohol disinfection was performed. 24 hours after modeling, the rats in the blank group and the model group were intragastrically administered with normal saline at a dose of 5 mL/kg every day, the rats in the positive control group were intragastrically administered with prednisone acetate at a dose of 5 mL/kg every day, and the rats in embodiment groups 1-3 and comparative example groups 1-2 were intragastrically administered with corresponding plant extract at a dose of 5 mL/kg continuously for 28 d. During this period, the rats in each group were raised according to a conventional method.
(1) Body weight: weighed the rats in each group on the day of intragastric administration, and weighed the rats in each group every 7 d.

[2] = system: rat models of pulmonary fibrosis; test: Lung coefficient in bleomycin-induced rat models of pulmonary fibrosis; settings: wet lung weight/body weight x100%, bleomycin rats, intragastric 5 mL/kg daily
From the text: as §1
as §2, with “24 hours after modeling, the rats in the blank group and the model group were intragastrically administered with normal saline at a dose of 5 mL/kg every day, the rats in the positive control group were intragastrically administered with prednisone acetate at a dose of 5 mL/kg every day, and the rats in embodiment groups 1-3 and comparative example groups 1-2 were intragastrically administered with corresponding plant extract at a dose of 5 mL/kg continuously for 28 d. During this period, the rats in each group were raised according to a conventional method.” left out

[3] = system: rat models of pulmonary fibrosis; test: Hydroxyproline content in lung tissues of rat models of pulmonary fibrosis; settings: lung tissue, bleomycin rats, after intragastric administration 5 mL/kg daily for 28 d
Protocol: as §2, with “24 hours after modeling, the rats in the blank group and the model group were intragastrically administered with normal saline at a dose of 5 mL/kg every day, the rats in the positive control group were intragastrically administered with prednisone acetate at a dose of 5 mL/kg every day, and the rats in embodiment groups 1-3 and comparative example groups 1-2 were intragastrically administered with corresponding plant extract at a dose of 5 mL/kg continuously for 28 d. During this period, the rats in each group were raised according to a conventional method.” left out

CC(=O)OCC(=O)[C@@]1(O)CC[C@H]2[C@@H]3CCC4=CC(=O)C=C[C@]4(C)[C@H]3C(=O)C[C@@]21C [Positive control group, prednisone acetate]
Initial weight ([1]; baseline, day of first intragastric administration, 24 h after bleomycin 5 mg/kg intratracheal): 228.1 g
Weight on the 7th day ([1]; bleomycin rats, intragastric 5 mL/kg daily, day 7): 253.2 g
Weight on the 14th day ([1]; bleomycin rats, intragastric 5 mL/kg daily, day 14): 260.7 g
Weight on the 21st day ([1]; bleomycin rats, intragastric 5 mL/kg daily, day 21): 267.6 g
Weight on the 28th day ([1]; bleomycin rats, intragastric 5 mL/kg daily, day 28): 273.2 g
Lung coefficient on the 14th day ([2]; day 14): 0.568%
Lung coefficient on the 28th day ([2]; day 28): 0.594%
Hydroxyproline content [3]: 0.847 µg/mg
